Where “and” joins values, the source holds several entries; their conditions need not be identical. Identical values can stand only once. Like-named read-outs stand apart in the source and are kept apart here.
What was measured:
[1] = test system: p62 and LC3 punctate structures; assay: ICC of p62 and LC3 puncta formation and co-localization in HeLa cells; type: cell-based; details: 2.5 μM, 24 h
Experimental: (§1) Cells were cultured on coverslips coated with poly-L-lysine (Sigma) to observe cellular localization of proteins. Using 4% paraformaldehyde in PBS (pH 7.4), the cells were fixed for 15 min at room temperature and washed three times for 5 min with PBS. After fixing, the cells were permeabilized with 0.5% Triton X-100 in PBS solution for 15 min and washed three times with PBS for 5 min. The cells were blocked containing 2% BSA in PBS solution for 1 h at room temperature. Subsequently, the cells were incubated with primary antibody diluted in 2% BSA/PBS solution overnight at 4 °C, followed by washing the cells three times for 10 min with PBS and incubated with Alexa Fluor-conjugated secondary antibody diluted in 2% BSA/PBS for 30 min at room temperature. Using a DAPI-containing mounting medium (Vector Laboratories), the coverslips were mounted on glass slides. Confocal images were taken by laser scanning confocal microscope 510 Meta (Zeiss) and analyzed by Zeiss LSM Image Browser (ver. 4.2.0.121). […] Quantification results are shown as mean ± S.D. or S.E.M. of three independent experiments

[2] = test system: autophagic turnover of p62 and LC3; assay: Autophagic flux assay in HeLa cells with or without HCQ; type: cell-based; details: 2.5 μM, 24 h, with or without HCQ 10 µM 24 h
Experimental: Fig. 1 Nt-Arg-mimicking p62-ZZ ligands activate p62-dependent selective macroautophagy. a A model illustrating the mode of action of autophagy-targeting ligands. b Chemical structures of autophagy-targeting ligands. c In vitro pulldown assay in HEK293T cells of the 12-mer V-BiP peptide or autophagy-targeting ligands. d In vitro p62 oligomerization assay in HEK293T cells incubated with the p62-ZZ ligands in (b). e ICC of HeLa cells treated with p62-ZZ ligands in (b) (2.5 μM, 24 h). Scale bar, 10 μm. f, g Quantification of (e) for puncta formation and co-localization, respectively (n = 3 biologically independent experiments each counting 50 cells). h A schematic/formulae for autophagy flux index. i Autophagic flux assay in HeLa cells treated with YOK-1304 or YTK-105 (2.5 μM, 24 h) in the presence or absence of HCQ (10 µM, 24 h). Data are presented as mean values ± SD where relevant. P-values (from a two-sided unpaired t test): ***P < 0.000956 (for p62 punctate formation), ***P < 0.000539 (for LC3 punctate formation), ***P < 0.000925 (for p62-LC3 co-localization). Source data are provided with this paper. TEXT PRINTED IN THE PICTURE: (i) YOK 1304: Normalized p62 A.F. index: 2.8; Normalized LC3 II/I A.F. index: 4.2 | (i) YTK 105: Normalized p62 A.F. index: 4.6; Normalized LC3 II/I A.F. index: 11.2
Adherent cells were washed with phosphate-buffered saline (PBS) and cell pellets were lysed in SDS-based sample buffer (277.8 mM Tris-HCI, pH 6.8, 4.4% LDS, 44.4% (v/v) glycerol) containing beta-mercaptoethanol. Alternatively, cell pellets or protein supernatants were lysed in 5X Laemmli sample buffer. Whole-cell lysates were separated using SDS-PAGE, and transferred onto polyvinyllidene difluoride membranes at 100 V for 2 h at 4 °C. The membrane was incubated with a blocking solution consisting 4% skim milk in PBS solution for 30 min at room temperature and incubated with primary antibodies overnight, followed by incubation with host-specific HRP-conjugated secondary antibodies (1:10000 dilution). For signal detection, the membrane was developed with a mixture of ECL solution (Thermo Fisher Scientific) using X-ray films. Densitometry of developed bands was measured and analyzed with ImageJ (NIH, Bethesda).

[3] = test system: p62-positive and WIPI2-positive punctate structures; assay: ICC of WIPI2-p62 co-localization in HeLa cells; type: cell-based; details: HeLa expressing WIPI2-GFP, 2.5 μM, 6 h
Experimental: as §1
Supplementary Fig. 2. Characterization of p62-ZZ ligands (a, c, e) 3-D modeling of p62 […]
μM, 6 h). (m) Quantification of l for co-localization (n=3, 50 cells). Scale bar, 10 µm. (n) […]

ACHN cells [4] = assay: Wound healing assay in ACHN cells; type: cell-based; parameters: wound area / wound area, Average: unit not given here; details: ACHN, 5 μM; for wound area: N=1, N=2
Experimental: To analyze cell migration in two dimensions, U-87 MG or ACHN cells were plated to a monolayer. Cells were scratched with a sterile 10 μl pipette tip and the debris was removed using medium. Cells were treated with compounds and incubated for different time to monitor cell behavior. Photographs were obtained using a microscope at different time point.

ACHN cells [5] = assay: WST-based cell viability assay in ACHN cells; details: ACHN, duplicates
[6] = WST-based cell viability assay in ACHN cells; details: human, ACHN cells; for viability at 0.01 µM / viability at 0.1 µM / viability at 1 µM / viability at 10 µM / viability at 50 µM / viability at 100 µM: ACHN
[7] = duplicates, read-out: WST assay viability relative to con = 100
[8] = read-out: WST assay viability, AVG %

## CC(C)NCC(O)COc1ccc(OCc2ccccc2)c(OCCCc2ccccc2)c1 (stereo not shown) [YOK-1304]
[1]
  LC3 puncta formation, AVG of cells of 50: 38.6667
  LC3 puncta formation, percentage AVG: 77.3333%
  p62-LC3 colocalization, AVG of cells of 50: 37
  p62-LC3 colocalization, percentage AVG: 74%
  p62 puncta formation, AVG of cells of 50: 40.3333
  p62 puncta formation, percentage AVG: 80.6667%
[1]; single experiments
  LC3 puncta formation, cells of 50 cells counted: 29 and 49 and 38
  p62-LC3 colocalization, cells of 50 cells counted: 36 and 39
  p62 puncta formation, cells of 50 cells counted: 46 and 36 and 39
[2]
  Normalized LC3 II/I A.F. index: 4.2
  Normalized p62 A.F. index: 2.8
[3]
  WIPI2-GFP-p62 colocalization, AVG of cells of 50: 30.6667
  WIPI2-GFP-p62 colocalization, percentage AVG: 61.3333%
[3]; single experiments
  WIPI2-GFP-p62 colocalization, cells of 50 cells counted: 28 and 23 and 41
ACHN cells [4]; 0h
  wound area, Average: 2209762
  wound area, Average %: 0%
  wound area: 2287288 and 2132236
ACHN cells [4]; 4h
  wound area, Average: 1966032
  wound area, Average %: 0%
  wound area: 2073039 and 1859025
ACHN cells [4]; 12h
  wound area, Average: 1228896
  wound area, Average %: 0%
  wound area: 1307559 and 1150234
ACHN cells [4]; 24h
  wound area, Average: 122450
  wound area, Average %: 0%
ACHN cells [5]; 0.01uM
  WST assay raw reading: 0.964 and 0.955
  WST assay viability relative to con = 100: 95.4624
ACHN cells [5]; 0.1uM
  WST assay raw reading: 1.085 and 1.014
ACHN cells [5]; 1uM
  WST assay raw reading: 1.025 and 0.998
  WST assay viability relative to con = 100: 100.423
ACHN cells [5]; 10uM
  WST assay raw reading: 1.004 and 1.024
  WST assay viability relative to con = 100: 103.422
ACHN cells [5]; 50uM
  WST assay raw reading: 1.153 and 1.063
  WST assay viability relative to con = 100: 107.922
ACHN cells [5]; 100uM
  WST assay raw reading: 0.69 and 0.729
  WST assay viability relative to con = 100: 69.3905
[6]; [7]
  viability at 0.01 µM: 96.5%
  viability at 0.1 µM: 110%
  viability at 1 µM: 104%
  viability at 10 µM: 101%
  viability at 50 µM: 118%
  viability at 100 µM: 64.9%
[6]; [8]
  viability at 0.01 µM: 96%
  viability at 0.1 µM: 106%
  viability at 1 µM: 102%
  viability at 10 µM: 102%
  viability at 50 µM: 113%
  viability at 100 µM: 67.1%
[6]; WST-based viability assay, read-out: cytotoxicity IC50
  IC50: > 20 µM

From publication PMC8850458, “The AUTOTAC chemical biology platform for targeted protein degradation via the autophagy-lysosome system” (Nature Communications, 2022)
